The source of these data is ChEMBL document CHEMBL1212732, “Conformational inhibition of the hepatitis C virus internal ribosome entry site RNA” (Nat Chem Biol, 2009).

In series [1] the target is Internal ribosome entry site (IRES). The experiment in a line: Binding affinity to HCV 2AP54-labelled IRES subdomain 2a RNA in presence of 1 mM Mg2+ by FRET assay. The class given is nucleic-acid assay, Hepacivirus hominis.
Series [2] has as its system Hepacivirus hominis. The experiment in a line: Inhibition of HCV NS5B RNA dependent RNA polymerase after 60 mins.
For series [3], the system named is Hepatitis C virus. The experiment in a line: Inhibition of HCV 1b replicon translation in human HuH7 cells transfected with BM4-5 FEO HCV replicon RNA after 8 hrs by luciferase reporter assay. The class given is functional, organism-based, Hepacivirus hominis. Conditions: genotype 1b, Huh-7, 8 h.
In series [4] the test system is Internal ribosome entry site (IRES). The experiment in a line: Binding affinity to HCV Cy3/Cy5-labelled IRES subdomain 2a RNA by FRET assay. The following applies: Hepacivirus hominis. The class given is nucleic-acid assay.
The nature of series [5]: Cytotoxicity against human HuH7 cells at 0.25-25 uM after 48 hrs by colorimetric viability assay. The class given is cell-based. Conditions: huh-7, 48 h.
Series [6] addresses Internal ribosome entry site (IRES). In words: Binding affinity to HCV 2AP54-labelled IRES subdomain 2a RNA A54G mutant in presence of 1 mM Mg2+ by FRET assay. The class given is nucleic-acid assay, Hepacivirus hominis.
Series [7] relates to Hepatitis C virus. In words: Inhibition of HCV 1b replicon translation in human HuH7 cells transfected with BM4-5 FEO HCV replicon RNA A57U mutant by luciferase reporter assay relaitv to wild type. The class given is functional, Hepacivirus hominis, genotype 1b, Huh-7.
The target in series [8] is Internal ribosome entry site (IRES). The experiment in a line: Binding affinity to HCV 2AP54-labelled IRES subdomain 2a RNA A57U mutant in presence of 1 mM Mg2+ by FRET assay. The class given is nucleic-acid assay, Hepacivirus hominis.
The target is the same in series [9]. In words: Binding affinity to HCV 2AP54-labelled IRES subdomain 2a RNA C58A mutant in presence of 1 mM Mg2+ by FRET assay. The class given is nucleic-acid assay, Hepacivirus hominis.
Series [10] deals with Hepatitis C virus. In words: Inhibition of HCV 1b replicon translation in human HuH7 cells transfected with BM4-5 FEO HCV replicon RNA after 48 hrs by luciferase reporter assay. The class given is functional, organism-based, Hepacivirus hominis. The following applies: genotype 1b, Huh-7, 48 h.
For series [11], the system named is Hepatitis C virus. In words: Inhibition of HCV 1b replicon translation in human HuH7 cells transfected with BM4-5 FEO HCV replicon RNA after 4 hrs by luciferase reporter assay. The following applies: genotype 1b, Huh-7, 4 h. The class given is functional, organism-based, Hepacivirus hominis. (A replicon is a self-replicating genome or part of one, used to study replication in cells.)

For series [12], the target named is Internal ribosome entry site (IRES). In words: Binding affinity to HCV 2AP54-labelled IRES subdomain 2a RNA U56G/A57U mutant in presence of 1 mM Mg2+ by FRET assay. The class given is nucleic-acid assay, Hepacivirus hominis.
The test system of series [13] is Hepacivirus hominis. The experiment in a line: Inhibition of HCV NS5B RNA dependent RNA polymerase after 24 mins.
Series [14] concerns the target Internal ribosome entry site (IRES). In words: Binding affinity to HCV 2AP54-labelled IRES subdomain 2a RNA by mass spectrometry. The class given is nucleic-acid assay, Hepacivirus hominis.
Series [15] shares this target. The experiment in a line: Binding affinity to HCV 2AP54-labelled IRES subdomain 2a RNA C55U mutant in presence of 1 mM Mg2+ by FRET assay. The class given is nucleic-acid assay, Hepacivirus hominis.
The target is the same in series [16]. The experiment in a line: Binding affinity to HCV 2AP54-labelled IRES subdomain 2a RNA C55A mutant in presence of 1 mM Mg2+ by FRET assay. The class given is nucleic-acid assay, Hepacivirus hominis.
For series [17] the target is unchanged. The experiment in a line: Binding affinity to HCV 2AP54-labelled IRES subdomain 2a RNA in presence of 0.3 mM Mg2+ by FRET assay. The class given is nucleic-acid assay, Hepacivirus hominis.
Series [18] relates to Internal ribosome entry site (IRES). The experiment in a line: Binding affinity to HCV 2AP54-labelled IRES subdomain 2a RNA in presence of Mg2+ by FRET assay in presence of eukaryotic tRNA. The following applies: Hepacivirus hominis. The class given is nucleic-acid assay.
The test system is the same in series [19]. In words: Binding affinity to HCV 2AP54-labelled IRES subdomain 2a RNA in presence of Mg2+ by FRET assay. The class given is nucleic-acid assay. The following applies: Hepacivirus hominis.

Broadly, the EC50 is the concentration needed to bring the measured effect to its halfway point. The term IC50 denotes the concentration that gives 50% inhibition. Usually Kd stands for the constant that tells how readily two partners part at equilibrium. A high value points to lower affinity.

The source made the active and inactive calls. The calls are words filed in the database; no cut-off is given here.

`CN(C)CC(CO)Cn1c(N)nc2ccc3c(c21)CC(CO)CO3` (stereo not given): the EC50 in series [1] stood at 90 µM.
For `CN(C)CC1COc2ccc3nc4n(c3c2C1)CC(CN(C)C)CN4` (stereo not given), the inhibition entry in the series with Hepacivirus hominis [2] and in the series on Hepacivirus hominis [13] was “Active” in each case. For the same compound, the values for the IC50 with Hepatitis C virus [3], in the series on Hepatitis C virus [10] and in the series with Hepatitis C virus [11] were 9.5 µM, 2 µM and 4 µM, respectively. Moreover, in series [4], the result was inactive. Also, the Activity entry in series [5] is “Toxic”; in series [19] it was “Dose-dependent effect”. Besides, the EC50 in [6] amounted to 0.49 µM; in series [8], 4.2 µM; in [9], 0.76 µM; in series [1] it was 0.6 µM; in series [12], 4.1 µM; in series [15], 0.32 µM. Moreover, the figures for the EC50 in [16] and in series [17] were 0.65 µM and 0.26 µM, respectively. Further, the “inhibition (INH)” value with Hepatitis C virus [7] was determined as 15%. For the same compound, in series [14], the dissociation constant Kd stood at 0.72 µM. In series [18], the outcome was Active.
